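Test compounds were applied to cells in 96-well plates for 48 hours at 5 doses. GI50: concentration for 50% inhibition of growth.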 Calls of active or inactive are those of the source. No stated cut-off is given here; in the data, active = GI50 up to about 1.1 µM and inactive = higher.
Experiments:
Assay in all cases: NCI-60 cell line screen, 48 h
SK-MEL-2 = test system: SK-MEL-2
COLO 205 = test system: COLO 205
Hs-578T = test system: Hs-578T
EKVX = test system: EKVX
T47D = test system: T47D
PC-3 = test system: PC-3
HL-60 = test system: HL-60
786-0 = test system: 786-0
OVCAR-3 = test system: OVCAR-3
SK-MEL-5 = test system: SK-MEL-5
TK-10 = test system: TK-10
UACC-257 = test system: UACC-257
M14 = test system: M14
KM12 = test system: KM12
K562 = test system: K562
HT-29 = test system: HT-29
NCI-H226 = test system: NCI-H226
ACHN = test system: ACHN
SN12C = test system: SN12C
SNB-75 = test system: SNB-75

SMILES	GI50 (SK-MEL-2)	GI50 (COLO 205)	GI50 (Hs-578T)	GI50 (EKVX)	GI50 (T47D)	GI50 (PC-3)	GI50 (HL-60)	GI50 (786-0)	GI50 (OVCAR-3)	GI50 (SK-MEL-5)	GI50 (TK-10)	GI50 (UACC-257)	GI50 (M14)	GI50 (KM12)	GI50 (K562)	GI50 (HT-29)	GI50 (NCI-H226)	GI50 (ACHN)	GI50 (SN12C)	GI50 (SNB-75)
Cc1ccc(N2C(=O)C(O)=C(C(=O)C(C)(C)C)C2c2ccc([N+](=O)[O-])cc2)cc1 (stereo unspecified)	24 µM (inactive)	15.7 µM (inactive)	16.9 µM (inactive)	26.9 µM (inactive)	18.8 µM (inactive)	29.9 µM (inactive)	12.3 µM (inactive)	16.3 µM (inactive)	19.6 µM (inactive)	15.8 µM (inactive)	36.2 µM (inactive)	15.8 µM (inactive)	18.2 µM (inactive)	16.7 µM (inactive)	23.9 µM (inactive)	17.6 µM (inactive)	19.1 µM (inactive)	16.6 µM (inactive)	15.4 µM (inactive)	
COc1ccc(/C=C2/S/C(=N\c3ccccc3)N(NC(=O)Cc3ccccc3)C2=O)cc1	> 100 µM (inactive)	> 100 µM (inactive)	> 100 µM (inactive)	> 100 µM (inactive)	> 100 µM (inactive)		> 100 µM (inactive)	> 100 µM (inactive)	> 100 µM (inactive)	> 100 µM (inactive)	> 100 µM (inactive)	> 100 µM (inactive)	> 100 µM (inactive)	> 100 µM (inactive)	> 100 µM (inactive)	> 100 µM (inactive)	> 100 µM (inactive)	> 100 µM (inactive)	> 100 µM (inactive)	> 100 µM (inactive)
Nc1nc(CCC(=O)Nc2cccc(C(F)(F)F)c2)cc(-c2ccc3ccccc3c2)n1	> 100 µM (inactive)	> 100 µM (inactive)		> 100 µM (inactive)			> 100 µM (inactive)	> 100 µM (inactive)	> 100 µM (inactive)	> 100 µM (inactive)	> 100 µM (inactive)	> 100 µM (inactive)	> 100 µM (inactive)	> 100 µM (inactive)	> 100 µM (inactive)	> 100 µM (inactive)	> 100 µM (inactive)	> 100 µM (inactive)	> 100 µM (inactive)	> 100 µM (inactive)
COC1CCC(OC)C(C2(C3CC(OC)CCC3OC)OC(=O)c3ccccc32)C1 (stereo unspecified)	93.8 µM (inactive)	28.8 µM (inactive)		60.8 µM (inactive)			13.7 µM (inactive)	> 100 µM (inactive)	75.9 µM (inactive)	26.4 µM (inactive)	> 100 µM (inactive)	> 100 µM (inactive)	64.7 µM (inactive)	38.9 µM (inactive)	22.2 µM (inactive)	33.8 µM (inactive)	86.7 µM (inactive)	> 100 µM (inactive)	> 100 µM (inactive)	> 100 µM (inactive)
COc1cc2cc(C(=O)N3CC(CCl)c4ccc(O)cc43)[nH]c2c(OC)c1OC (stereo unspecified)	0.00169 µM (active)	0.0227 µM (active)	0.016 µM (active)	0.0513 µM (active)	0.0356 µM (active)		0.00647 µM (active)	0.00012 µM (active)	0.0031 µM (active)	< 0.0001 µM (active)	0.0408 µM (active)	0.0149 µM (active)	0.00163 µM (active)	0.00507 µM (active)	0.000282 µM (active)	0.00104 µM (active)	0.0168 µM (active)	< 0.0001 µM (active)	0.00441 µM (active)	0.00628 µM (active)
CC(C)(Br)C(Br)CC/C(=C/CBr)CBr.CC(C)(Br)C(Br)CC/C(=C\CBr)CBr (stereo unspecified)	3.19 µM (inactive)	3.27 µM (inactive)	19.1 µM (inactive)	25.3 µM (inactive)	2.76 µM (inactive)		0.553 µM (active)	1.95 µM (inactive)		4.5 µM (inactive)	8.77 µM (inactive)	6 µM (inactive)	2.02 µM (inactive)	4.16 µM (inactive)	2.24 µM (inactive)	3.02 µM (inactive)	14.2 µM (inactive)	5.83 µM (inactive)	2 µM (inactive)	3.98 µM (inactive)
CC(C)C(=O)Oc1cc2c(=O)oc3c(OC(=O)C(C)C)c(OC(=O)C(C)C)cc4c(=O)oc(c1OC(=O)C(C)C)c2c34		> 100 µM (inactive)	> 100 µM (inactive)	> 100 µM (inactive)		> 100 µM (inactive)		> 100 µM (inactive)	> 100 µM (inactive)	> 100 µM (inactive)	> 100 µM (inactive)	> 100 µM (inactive)	> 100 µM (inactive)	> 100 µM (inactive)	> 100 µM (inactive)	> 100 µM (inactive)	> 100 µM (inactive)	> 100 µM (inactive)	> 100 µM (inactive)	> 100 µM (inactive)
CNC(=O)/C(C#N)=C(\N)N1CCCC1	> 100 µM (inactive)	> 100 µM (inactive)	> 100 µM (inactive)	> 100 µM (inactive)	> 100 µM (inactive)	> 100 µM (inactive)	> 100 µM (inactive)	> 100 µM (inactive)	> 100 µM (inactive)	> 100 µM (inactive)	> 100 µM (inactive)			> 100 µM (inactive)	> 100 µM (inactive)	> 100 µM (inactive)	> 100 µM (inactive)	> 100 µM (inactive)	> 100 µM (inactive)	
CC/C=C/C(=O)CC(O)(C(F)(F)F)C(F)(F)F		> 100 µM (inactive)	19 µM (inactive)	> 100 µM (inactive)	82.2 µM (inactive)		92.7 µM (inactive)	> 100 µM (inactive)		> 100 µM (inactive)	> 100 µM (inactive)	> 100 µM (inactive)	> 100 µM (inactive)	> 100 µM (inactive)		> 100 µM (inactive)	> 100 µM (inactive)	> 100 µM (inactive)	> 100 µM (inactive)	> 100 µM (inactive)
CC(=O)OCCOCNC(=S)N/N=C(\C)c1cnccn1	> 100 µM (inactive)	28.1 µM (inactive)		22.3 µM (inactive)			15.7 µM (inactive)	33.4 µM (inactive)	23.7 µM (inactive)	15.4 µM (inactive)	28.4 µM (inactive)	43.1 µM (inactive)	17.1 µM (inactive)	43.3 µM (inactive)	30.5 µM (inactive)	41 µM (inactive)	28.1 µM (inactive)	13.6 µM (inactive)	29.7 µM (inactive)	33.5 µM (inactive)
CC(C)C(/N=C1\CC2CCC1(C(=O)Nc1ccccc1O)C2(C)C)c1ccccc1 (stereo unspecified)	> 10 µM (inactive)	> 10 µM (inactive)		7.43 µM (inactive)			2.4 µM (inactive)	> 10 µM (inactive)	> 10 µM (inactive)	6.44 µM (inactive)	> 10 µM (inactive)	5.89 µM (inactive)	> 10 µM (inactive)	> 10 µM (inactive)	> 10 µM (inactive)	9.75 µM (inactive)	> 10 µM (inactive)	> 10 µM (inactive)	> 10 µM (inactive)	> 10 µM (inactive)
CC(=O)OCC1OC(n2ccc(=O)[nH]c2=O)C(OC(C)=O)C(OC(C)=O)C1OC(C)=O (stereo unspecified)	> 100 µM (inactive)	> 100 µM (inactive)		> 100 µM (inactive)			> 10 µM (inactive)	> 100 µM (inactive)	> 100 µM (inactive)	> 100 µM (inactive)	> 100 µM (inactive)	> 100 µM (inactive)	> 100 µM (inactive)	> 100 µM (inactive)	> 100 µM (inactive)	> 100 µM (inactive)	9.16 µM (inactive)	> 100 µM (inactive)	> 100 µM (inactive)	50.6 µM (inactive)
c1ccc(C(=NNc2nc3ccccc3o2)c2ccccn2)nc1	0.0883 µM (active)	< 0.01 µM (active)	0.447 µM (active)	< 0.0162 µM (active)	< 0.01 µM (active)	< 0.0191 µM (active)	0.0439 µM (active)	< 0.0254 µM (active)		0.0818 µM (active)	0.0574 µM (active)	0.0494 µM (active)	0.0281 µM (active)	0.148 µM (active)	0.0327 µM (active)	< 0.0164 µM (active)	< 0.01 µM (active)	0.0198 µM (active)	0.118 µM (active)	
CC1CC(N)=Nc2ccccc2N1 (stereo unspecified)	> 100 µM (inactive)	> 100 µM (inactive)	> 100 µM (inactive)	> 100 µM (inactive)		> 100 µM (inactive)	> 100 µM (inactive)	> 100 µM (inactive)	> 100 µM (inactive)	> 100 µM (inactive)	> 100 µM (inactive)	> 100 µM (inactive)	> 100 µM (inactive)	> 100 µM (inactive)	> 100 µM (inactive)	> 100 µM (inactive)	> 100 µM (inactive)	> 100 µM (inactive)	> 100 µM (inactive)	30.1 µM (inactive)
Cc1nsc2cc(Cl)n(C)c(=O)c12	> 100 µM (inactive)	> 100 µM (inactive)		50.4 µM (inactive)			> 100 µM (inactive)	> 100 µM (inactive)	> 100 µM (inactive)	> 100 µM (inactive)	> 100 µM (inactive)	> 100 µM (inactive)	> 100 µM (inactive)	> 100 µM (inactive)	> 100 µM (inactive)	> 100 µM (inactive)	> 100 µM (inactive)	> 100 µM (inactive)	> 100 µM (inactive)	66.4 µM (inactive)
CCC1=C(C)/C(=C/c2[nH]c(C(Br)Br)c(CC)c2C)N=C1C(Br)Br	38 µM (inactive)	5.87 µM (inactive)		30.1 µM (inactive)			16.9 µM (inactive)	63.2 µM (inactive)	23.2 µM (inactive)	16.6 µM (inactive)	41.2 µM (inactive)	19.9 µM (inactive)	55.7 µM (inactive)	19.1 µM (inactive)	24.2 µM (inactive)	28.5 µM (inactive)	20.1 µM (inactive)	14.6 µM (inactive)	31.2 µM (inactive)	21.6 µM (inactive)

Source: ChEMBL document CHEMBL1201862, “PubChem BioAssay data set” (2004)
